In PubChem BioAssay (NCI):
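These data come from cells grown in 96-well plates and exposed to compound for 48 hours at five concentrations. At the TGI there is no net growth.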

Tests used:
Test in all cases: NCI-60 cell line screen, 48 h
BT-549 breast = system: BT-549 breast
DU-145 prostate = system: DU-145 prostate
HCT-15 colon = system: HCT-15 colon
HOP-62 NSCLC = system: HOP-62 NSCLC
K-562 leukemia = system: K-562 leukemia
MALME-3M melanoma = system: MALME-3M melanoma
MDA-N = system: MDA-N
NCI-H23 lung = system: NCI-H23 lung
OVCAR-3 ovarian = system: OVCAR-3 ovarian
OVCAR-5 ovarian = system: OVCAR-5 ovarian
OVCAR-8 ovarian = system: OVCAR-8 ovarian
PC-3 prostate = system: PC-3 prostate
RXF 393 renal = system: RXF 393 renal
SF-268 CNS = system: SF-268 CNS
SK-MEL-5 melanoma = system: SK-MEL-5 melanoma
U251 CNS = system: U251 CNS
UACC-257 melanoma = system: UACC-257 melanoma
UO-31 renal = system: UO-31 renal
NCI-H460 lung = system: NCI-H460 lung

| SMILES | TGI (BT-549 breast) | TGI (DU-145 prostate) | TGI (HCT-15 colon) | TGI (HOP-62 NSCLC) | TGI (K-562 leukemia) | TGI (MALME-3M melanoma) | TGI (MDA-N) | TGI (NCI-H23 lung) | TGI (OVCAR-3 ovarian) | TGI (OVCAR-5 ovarian) | TGI (OVCAR-8 ovarian) | TGI (PC-3 prostate) | TGI (RXF 393 renal) | TGI (SF-268 CNS) | TGI (SK-MEL-5 melanoma) | TGI (U251 CNS) | TGI (UACC-257 melanoma) | TGI (UO-31 renal) | TGI (NCI-H460 lung) |
| --- | --- | --- | --- | --- | --- | --- | --- | --- | --- | --- | --- | --- | --- | --- | --- | --- | --- | --- | --- |
| N#Cc1c(C#N)c(-c2ccco2)n(-c2ccccc2)c1N | > 100 µM | > 100 µM | > 100 µM | > 100 µM | > 100 µM | > 100 µM | > 100 µM | > 100 µM | > 100 µM | > 100 µM | 73.1 µM | > 100 µM | > 100 µM | > 100 µM | > 100 µM | > 100 µM | > 100 µM | > 100 µM |  |
| CCOC(CI)O[C@@H]1C=C[C@H](OC(C)=O)C1 (some centres undefined) | > 100 µM | > 100 µM | > 100 µM | > 100 µM | > 100 µM | > 100 µM | > 100 µM | > 100 µM | > 100 µM | > 100 µM | > 100 µM | > 100 µM | > 100 µM | > 100 µM |  | > 100 µM | > 100 µM | > 100 µM | > 100 µM |
| COc1ccc(CC2c3cc(OC)c(OC)c(OC)c3CC[N+]2(C)C)cc1Oc1ccc(CC2c3cc4c(c(OC)c3CCN2C)OCO4)cc1 (centres undefined) | > 100 µM | > 100 µM | > 100 µM |  | > 100 µM | > 100 µM | > 100 µM | > 100 µM | > 100 µM | > 100 µM | > 100 µM | > 100 µM | > 100 µM | > 100 µM | > 100 µM | > 100 µM | > 100 µM | > 100 µM | > 100 µM |
| CC1=C(C#N)C2C(=C(N)Oc3ccccc32)C(N)=N1 (centres undefined) | 93.5 µM | 60.9 µM | 41.4 µM | > 100 µM | 90.8 µM | 35.5 µM | > 100 µM |  | > 100 µM | 91.6 µM | 56.8 µM | > 100 µM | > 100 µM | 67.4 µM | 49.5 µM | > 100 µM | 69.6 µM | 41.2 µM |  |
| COc1ccc(N2C(=O)c3cccnc3S2(=O)=O)cc1 | > 100 µM | > 100 µM | > 100 µM | > 100 µM | > 100 µM | > 100 µM | > 100 µM | > 100 µM | > 100 µM | > 100 µM | > 100 µM | > 100 µM | > 100 µM | > 100 µM |  | > 100 µM | > 100 µM | > 100 µM | > 100 µM |
| CCO/C=N/C1=C(C#N)C(c2ccc(Cl)cc2)c2c(-c3ccccc3)nn(-c3ccccc3)c2O1 (centres undefined) | 31.5 µM | > 31.6 µM | > 52.5 µM | 86.5 µM | > 100 µM | 30 µM | 45.8 µM | 24.5 µM | > 45.2 µM | > 70.1 µM | > 80.8 µM | 22.7 µM | 28.6 µM | 29.9 µM |  | 16.8 µM | 35.9 µM | 31.9 µM | 46 µM |
| CCCN(CCC)c1cc2c(cc1F)c(=O)c(C(=O)O)cn2-c1ccc(N2CCN(C)CC2)cn1 | 25 µM | 45.3 µM | > 100 µM | 31.4 µM | 55.1 µM | 27.9 µM | 40.1 µM | 35 µM | 29.7 µM | 41.3 µM | 27.3 µM | 39.3 µM | 33.1 µM | 30.7 µM |  | > 100 µM | 36.4 µM | 32.2 µM | 36.5 µM |
| CC(=O)c1nc2ccccc2n1CC(=O)c1ccc(Cl)cc1 | > 100 µM | > 100 µM | > 100 µM | 25.2 µM | > 100 µM | 22.6 µM | > 100 µM | > 100 µM | 23.2 µM |  | 85.8 µM | 60.1 µM | 98.5 µM | > 100 µM |  | > 100 µM | > 100 µM | > 100 µM | 22.5 µM |
| N#Cc1c(N)c2c(c(-c3ccccc3)c1-c1ccccc1)C(=O)N(NC(=O)c1ccccc1)C2=O | > 100 µM | > 100 µM | > 100 µM |  | > 100 µM | > 100 µM | > 100 µM |  | > 100 µM | > 100 µM | > 100 µM | > 100 µM | > 100 µM | > 100 µM | > 100 µM | > 100 µM | > 100 µM | > 100 µM | > 100 µM |
| COc1ccc(C2CC(=O)CC(c3ccc(OC)cc3)C23C(=O)NC(=S)NC3=O)cc1 (centres undefined) | > 100 µM | > 100 µM | > 100 µM | > 100 µM | > 100 µM |  | > 100 µM | > 100 µM | > 100 µM | > 100 µM | > 100 µM | > 100 µM | > 100 µM | > 100 µM | > 100 µM | > 100 µM | > 100 µM | > 100 µM | > 100 µM |
| Cc1cc(S(=O)(=O)n2ccnc2Oc2ccccc2)c(SSc2cc(Cl)c(C)cc2S(=O)(=O)n2ccnc2Oc2ccccc2)cc1Cl | > 100 µM | > 100 µM | > 100 µM |  | > 100 µM | > 100 µM | > 100 µM |  | > 100 µM | > 100 µM | > 100 µM | > 100 µM | > 100 µM | > 100 µM | > 100 µM | > 100 µM | > 100 µM | > 100 µM | > 100 µM |
